Experiments:
[1] = Activity of AknS in presence of AknT
[2] = system: DU-145; experiment: Cytotoxicity against human DU145 cells after 72 hrs by calcein AM assay; format: functional, cell-based; conditions: DU-145, 72 h, pooled result: one value given for 9 cell lines, strains, targets or settings

Structure (SMILES) | kcat [1] [s⁻¹] | IC50 [2] [nM]
CC[C@@]1(O)C[C@H](O[C@H]2C[C@H](N(C)C)[C@H](O[C@H]3C[C@H](O)[C@H](O[C@H]4CCC(=O)[C@H](C)O4)[C@H](C)O3)[C@H](C)O2)c2c(cc3c(c2O)C(=O)c2c(O)cccc2C3=O)[C@H]1C(=O)OC | 0.00367 | –
C[C@H]1O[C@@H](O[C@H]2[C@@H](O)C[C@H](O[C@H]3[C@@H](O)C[C@H](O[C@H]4CC[C@@]5(C)[C@H](CC[C@@H]6[C@@H]5CC[C@]5(C)[C@@H](C7=CC(=O)OC7)CC[C@]65O)C4)O[C@@H]3C)O[C@@H]2C)C[C@H](O)[C@@H]1O [DIGITOXIN] | – | 440

From ChEMBL document CHEMBL1158841, “Neoglycorandomization and chemoenzymatic glycorandomization: two complementary tools for natural product diversification” (J Nat Prod, 2005)
